{"source": "paper PMC8546421", "about": "“Molecular modelling of the FOXO4-TP53 interaction to design senolytic peptides for the elimination of senescent cancer cells” (EBioMedicine, 2021)", "key": {"[1]": {"system": "A375, B16F10, HCT116, MCF7, IMR90 and MCF10A cells", "experiment": "ES2 viability (MTS) in cell line panel, senescent vs dividing", "format": "cell-based", "description": "Cell lines were treated with chemotherapy, doxorubicin (Sigma, Cat. No. 2252) to induce senescence (200 nM for HCT116, 100 nM for B16-F10 and MCF7, 50 nM for SW480 and DLD-1, 40 nM for A375-Luc/iRFP and MCF10a). MCF7 cells were treated with CDK4/6 inhibitor, palbociclib (Selleck Chemicals: S1116) to induce senescence (5 µM). A375 cells were treated with Braf inhibitor, Dabrafenib (Selleck Chemicals: S2807), to induce senescence (10 µM). Peptide efficacy experiments were performed by seeding 10,000 – 20,000 cells in a 96-well plate. The cells were given doxorubicin twice to make the cells senescent. After removal of doxorubicin, the plate was treated with varying concentrations of peptide. The peptide was replenished daily for two days. Cellular proliferation was quantified using the Promega CellTiter 96™ AQueous One Solution Cell Proliferation Assay (MTS) after 2 hours according to the manufacturer's protocol (Promega, G3581). To control for the charge of ES2, ProteoJuice (Millipore Sigma, 71281) was used to deliver ES2 using the manufacturers protocol, except 50 µL of 2 mM ES2 was mixed with 25 µL of ProteoJuice. Varying concentrations of the mixture were administered to A375 cells along with a control of only ProteoJuice."}, "[2]": {"system": "senescent TP53 knockout MCF10a cells", "experiment": "ES2 viability in TP53 knockout vs wildtype MCF10a cells", "format": "cell-based, human", "details": "range of ES2 treatments", "description": "A375-Luc/iRFP cells were purchased from Creative Biogene (CSC-RR0254). B16-F10 cells were purchased (ATCC Cat# CRL-6475, RRID:CVCL_0159). MCF7 cells were purchased (ATCC Cat# HTB-22, RRID:CVCL_0031). IMR90 cells were purchased (ATCC Cat# CCL-186, RRID:CVCL_0347). A375-Luc/iRFP, B16-F10, IMR90, and MCF7 cells were cultured in Dulbecco's Modified Eagle Medium (DMEM), 10% fetal bovine serum (FBS) and 1X penicillin-streptomycin (PS). HCT-116 cells were purchased (ATCC Cat# CCL-247, RRID:CVCL_0291). DLD-1 cells were purchased (ATCC Cat# CCL-221, RRID:CVCL_0248). SW480 cells were purchased (ATCC Cat# CCL-228, RRID:CVCL_0546). HCT-116, DLD-1, and SW480 cells were cultured in Roswell Park Memorial Institute 1640 (RPMI 1640), 10% FBS, and 1X PS. […]\nCell lines were treated with chemotherapy, doxorubicin (Sigma, Cat. No. 2252) to induce senescence (200 nM for HCT116, 100 nM for B16-F10 and MCF7, 50 nM for SW480 and DLD-1, 40 nM for A375-Luc/iRFP and MCF10a). […] Cellular proliferation was quantified using the Promega CellTiter 96™ AQueous One Solution Cell Proliferation Assay (MTS) after 2 hours according to the manufacturer's protocol (Promega, G3581). […]"}, "[3]": {"system": "dividing A375 cells", "experiment": "Orthotopic xenograft of dividing luciferase A375 cells, radiance", "format": "in vivo, mouse", "details": "dividing A375 cells injected orthotopically, locally injected twice, imaged one day later; ES2 n=5, saline n=9"}, "[4]": {"system": "FOXO4-TP53 foci", "experiment": "Proximity Ligation Assay", "format": "cell-based, human", "details": "8 µM ES2, 1 hour", "description": "Senescent and dividing A375 cells were plated in 96-well plates (Cellvis P96-1.5P) at concentration of 20,000 cells per well. The following day, the cells were treated with 8 µM ES2 for 0, 1, and 4 hours. The plate was then fixed with 4% paraformaldehyde for 10 minutes at room temperature. Cells were washed with PBS twice then permeabilized with 0.1% Triton™ X-100 in PBS for 15 minutes. The duolink® In Situ Red Starter Kit Mouse/Rabbit was then used according to manufacturer's protocol with exception of 1:10 dilution of PLUS and MINUS PLA probes. Primary antibodies used were FOXO4 (Cell Signaling Technology Cat# 9472, RRID:AB_10831833, diluted 1:1000), TP53BP1 (BD Biosciences Cat# 612523, RRID:AB_399824, diluted 1:2000), and TP53 (Santa Cruz Cat# sc-126, RRID:AB_628082, diluted 1:500). Z-stacks with 0.34 um steps were captured on a Zeiss Axio Observer Z.1 inverted microscope using a Plan-Apochromat 40 × 0.95 NA lens. The system is setup for widefield fluorescence imaging using a Colibri 7 LED source and a Hamamatsu Orca-flash 4.0 LT black and white camera. The widefield z-stacks were flattened into maximum intensity projections as a pre-processing step before the analysis. Fluorescent foci were counted using the Zeiss Zen software Analysis feature. Briefly, the DAPI staining was used to define the nuclear regions. […] The total number of foci per nucleus was recorded."}, "[5]": {"system": "Braf/Pten sporadic melanomas", "experiment": "TUNEL staining of melanomas in transgenic mice", "format": "in vivo, mouse", "details": "intratumoural injection daily over two days; single agents vs saline", "experimental": "These mice were maintained on a C57Bl6 background and all experimental mice contained Tyr::CreER with either Braf^CA/+, Pten^fx/+; Braf^CA/CA, Pten^fx/+, or Braf^CA/+, Pten^fx/fx. […] Hypopigmented melanomas sporadically formed over the next 3-5 months, typically on the back of the mouse. These melanomas were then directly injected with 100 µL of either 20 mg/mL ES2+10%DMSO, saline+10%DMSO, saline+10%Dabrafenib, or 20 mg/mL ES2+10%Dabrafenib. The researchers were not blinded to the experiment, but each mouse contained an internal control and all imaging was done with the same exposure times based upon control tissue.\nFixed frozen sections of melanomas were stained with the Click-IT Plus TUNEL assay (ThermoFisher C10618) according to the manufacturer's protocol. Stained sections were imaged with a Zeiss A2 upright microscope at either 20x or 10x. At least one of each treatment group were stained and imaged at the same time. All sections from each staining group were set to the same exposure time for TUNEL and DAPI. Any normalization of background levels was performed in Adobe Photoshop and set to the same scale for the entire image and for all other images."}, "[6]": {"experiment": "Systemic delivery to aged mice, blood counts, weight, plasma urea", "format": "in vivo, mouse"}, "[7]": {"details": "aged mice (82 weeks), 3 mg ES2 via tail vein weekly for three weeks, n=5"}}, "note": "“Also recorded” adds a separate entry of the source. Where no end group is shown, it is not given here."}
{"sequence": "PRKGGRRRRAWGRRRRRRRRRRRRRRAPRKRLTLA [ES2]", "values": [{"measurement": "concentration of ES2 resulting in cell death, doxorubicin vs other pro-senescence agents", "setting": "[1]; A375 with Dabrafenib, MCF7 with Palbociclib", "result": "no difference in concentration of ES2 resulting in cell death"}, {"measurement": "IC50 in dividing cells relative to senescent cells", "setting": "[1]; doxorubicin-induced senescence, all cell lines", "result": "at least 3 times"}, {"measurement": "ES2 mediated cell death in p53−/− vs p53+/+ senescent MCF10a", "setting": "[2]", "result": "resistant to ES2 mediated cell death"}, {"measurement": "elimination of dividing cancer cells in vivo (radiance)", "setting": "[3]", "result": "no difference in gain of radiance; also recorded: ineffective at eliminating dividing cancer cells"}, {"measurement": "effect on FOXO4-TP53 foci in dividing cells", "setting": "[4]; dividing A375 cells", "result": "no effect on FOXO4-TP53 foci in dividing cells"}, {"measurement": "reduction of FOXO4-TP53 foci in senescent cells", "setting": "[4]; senescent A375 cells", "result": 2, "unit": "fold"}, {"measurement": "effect on apoptosis (TUNEL), in words", "setting": "[5]", "result": "no difference"}, {"measurement": "change in weight of the mice", "setting": "[6]; [7]", "result": "no significant change"}, {"measurement": "changes in numbers of white blood cells, platelets, or red blood cells", "setting": "[6]; [7]", "result": "non-significant changes"}, {"measurement": "toxicity after multiple doses", "setting": "[6]; aged mice, 3 weekly i.v. doses", "result": "minimal toxicity"}, {"measurement": "plasma urea levels", "setting": "[6]; aged mice, endpoint, n=5", "result": "while not significant, were reduced"}]}
